Converted amounts (≈) assume the structure as drawn.
The compounds below were run on S. aureus ATCC 13709 (assay: MIC, antibacterial potency, S. aureus). Conditions: S. aureus.
Format: cell-based

Question: Which MIC, SA does the source give for `CCc1[nH]c2nc(Sc3cccnc3)nc(Cl)c2c1C=O` [700,075] here?
Answer: The MIC, SA was 64 µg/mL (≈ 201 µM).

Question: How did the MIC, SA turn out when `CCc1[nH]c2nc(Sc3cccnc3)nc(NCC(C)C)c2c1C=O` [700,076] was run?
Answer: Its MIC, SA is greater than 64 µg/mL.

Question: `CCc1[nH]c2nc(Sc3cccnc3)nc(NCc3ccc(C)o3)c2c1C=O` [700,077] was tested. Which MIC, SA did it give?
Answer: Its MIC, SA is greater than 64 µg/mL.

Question: How did the MIC, SA turn out when `CCc1[nH]c2nc(Sc3cccnc3)nc(NCC3CCCCC3)c2c1C=O` [700,078] was run?
Answer: The MIC, SA was greater than 64 µg/mL.

Question: With `CCc1[nH]c2nc(Sc3cccnc3)nc(NCCOc3ccccc3)c2c1C=O` [700,079] as the compound, how does the MIC, SA read?
Answer: The MIC, SA was greater than 64 µg/mL.

Question: `CCc1[nH]c2nc(Sc3cccnc3)nc(NCc3ccccc3)c2c1C=O` [700,080] was tested. Which MIC, SA did it give?
Answer: The MIC, SA was greater than 64 µg/mL.

Question: With `CCOCCNc1nc(Sc2cccnc2)nc2[nH]c(CC)c(C=O)c12` [700,082] as the compound, how does the MIC, SA read?
Answer: Its MIC, SA is greater than 64 µg/mL.

Question: For `CCc1[nH]c2nc(Sc3cccnc3)nc(N3CCN(C(C)C)CC3)c2c1C=O` [700,084], which MIC, SA is on record?
Answer: Its MIC, SA is greater than 64 µg/mL.

Question: `CCc1[nH]c2nc(Sc3cccnc3)nc(N3CCN(CC(=O)N(C)C)CC3)c2c1C=O` [700,085] was tested. Which MIC, SA did it give?
Answer: The MIC, SA was greater than 64 µg/mL.

Question: For `CCc1[nH]c2nc(Sc3cccnc3N)nc(Cl)c2c1C=O` [700,088], which MIC, SA is on record?
Answer: Its MIC, SA is greater than 64 µg/mL.

Question: For `CCc1[nH]c2nc(Sc3cccnc3)nc(NCC(O)CO)c2c1C=O` (stereo not shown) [700,090], which MIC, SA is on record?
Answer: Its MIC, SA is greater than 64 µg/mL.

Question: `CCc1[nH]c2nc(Sc3cccnc3)nc(NCc3ccccc3OC)c2c1C=O` [700,091] was tested. Which MIC, SA did it give?
Answer: The MIC, SA was greater than 64 µg/mL.

Question: For `CCc1[nH]c2nc(Sc3cccnc3)nc(NCC3CCCO3)c2c1C=O` (stereo not shown) [700,092], which MIC, SA is on record?
Answer: The MIC, SA was 64 µg/mL (≈ 167 µM).

Question: With `CCc1[nH]c2nc(Sc3cccnc3)nc(NC(C)C)c2c1C=O` [700,093] as the compound, how does the MIC, SA read?
Answer: Its MIC, SA is greater than 64 µg/mL.

Question: Which MIC, SA does the source give for `CCc1[nH]c2nc(Sc3cccnc3)nc(NCCOC)c2c1C=O` [700,094] here?
Answer: Its MIC, SA is 64 µg/mL (≈ 179 µM).

Question: For `CCc1[nH]c2nc(Sc3cccnc3)nc(NCCO)c2c1C=O` [700,096], which MIC, SA is on record?
Answer: Its MIC, SA is greater than 64 µg/mL.

Question: Which MIC, SA does the source give for `CCc1[nH]c2nc(Sc3cccnc3)nc(NCc3cccc(S(C)(=O)=O)c3)c2c1C=O.Cl` [700,098] here?
Answer: Its MIC, SA is greater than 64 µg/mL.

Question: How did the MIC, SA turn out when `CCc1[nH]c2nc(Sc3nc4ccccc4s3)nc(Cl)c2c1C=O` [700,099] was run?
Answer: The MIC, SA was greater than 64 µg/mL.

Question: With `CCc1[nH]c2nc(Sc3nc4ccccc4s3)nc(NC[C@H](C)O)c2c1C=O` [700,100] as the compound, how does the MIC, SA read?
Answer: Its MIC, SA is greater than 64 µg/mL.

Question: `CCc1[nH]c2nc(Sc3nc4ccccc4s3)nc(NC(C)C)c2c1C=O` [700,101] was tested. Which MIC, SA did it give?
Answer: The MIC, SA was greater than 64 µg/mL.

Question: `CCc1[nH]c2nc(Sc3nc4ccccc4s3)nc(NCCN3CCOCC3)c2c1C=O` [700,102] was tested. Which MIC, SA did it give?
Answer: Its MIC, SA is greater than 64 µg/mL.

Question: For `CCc1[nH]c2nc(Sc3nc4ccccc4s3)nc(NCc3cccnc3)c2c1C=O` [700,103], which MIC, SA is on record?
Answer: Its MIC, SA is greater than 64 µg/mL.

Question: `C#CCNc1nc(Sc2nc3ccccc3s2)nc2[nH]c(CC)c(C=O)c12` [700,104] was tested. Which MIC, SA did it give?
Answer: Its MIC, SA is greater than 64 µg/mL.

Question: For `CCNc1nc(Sc2nc3ccccc3s2)nc2[nH]c(CC)c(C=O)c12` [700,105], which MIC, SA is on record?
Answer: The MIC, SA was greater than 64 µg/mL.

Question: For `CCc1[nH]c2nc(Sc3nc4ccccc4s3)nc(NCCCN3CCOCC3)c2c1C=O` [700,106], which MIC, SA is on record?
Answer: Its MIC, SA is greater than 64 µg/mL.

Question: How did the MIC, SA turn out when `CCc1[nH]c2nc(Sc3nc4ccccc4s3)nc(NCCCn3ccnc3)c2c1C=O` [700,107] was run?
Answer: The MIC, SA was greater than 64 µg/mL.

Question: With `CCc1[nH]c2nc(Sc3nc4ccccc4s3)nc(NN)c2c1C=O` [700,108] as the compound, how does the MIC, SA read?
Answer: Its MIC, SA is greater than 64 µg/mL.

Question: `CCc1[nH]c2nc(Sc3nc4ccccc4s3)nc(Cl)c2c1CO` [700,109] was tested. Which MIC, SA did it give?
Answer: The MIC, SA was greater than 64 µg/mL.

Question: `CCc1[nH]c2nc(Sc3cccnc3)nc(Cl)c2c1C(C)=O` [700,119] was tested. Which MIC, SA did it give?
Answer: The MIC, SA was 64 µg/mL (≈ 192 µM).

Question: `CCc1[nH]c2nc(Sc3cccnc3)nc(NCCCn3ccnc3)c2c1C(C)=O` [700,121] was tested. Which MIC, SA did it give?
Answer: Its MIC, SA is 32 µg/mL (≈ 75.9 µM).

Question: With `CCc1[nH]c2nc(Sc3cccnc3)nc(NC(C)C)c2c1C(C)=O` [700,122] as the compound, how does the MIC, SA read?
Answer: Its MIC, SA is greater than 64 µg/mL.

Question: Which MIC, SA does the source give for `CCc1[nH]c2nc(Sc3cccc(C(=O)O)c3)nc(NC[C@H](C)O)c2c1C=O` [700,127] here?
Answer: The MIC, SA was greater than 64 µg/mL.

Question: `CCc1[nH]c2nc(Sc3cccnc3)nc(OC)c2c1C=O` [700,129] was tested. Which MIC, SA did it give?
Answer: The MIC, SA was 16 µg/mL (≈ 50.9 µM).

Question: How did the MIC, SA turn out when `CCOc1nc(Sc2cccnc2)nc2[nH]c(CC)c(C=O)c12` [700,130] was run?
Answer: The MIC, SA was 8 µg/mL (≈ 24.4 µM).

Question: How did the MIC, SA turn out when `CCc1[nH]c2nc(Sc3cccnc3)nc(N[C@H](C)CO)c2c1C=O` [700,131] was run?
Answer: The MIC, SA was 64 µg/mL (≈ 179 µM).

Question: `CCc1[nH]c2nc(Sc3cccnc3)nc(NC3CCCC[C@H]3O)c2c1C=O` (stereo partly shown) [700,132] was tested. Which MIC, SA did it give?
Answer: Its MIC, SA is 32 µg/mL (≈ 80.5 µM).

Question: For `CCc1[nH]c2nc(Sc3cccnc3)nc(N[C@H]3CCCC[C@@H]3N)c2c1C=O` [700,133], which MIC, SA is on record?
Answer: The MIC, SA was greater than 64 µg/mL.

Source: patent US10047105B2, “Gyrase inhibitors” (Merck Sharp & Dohme Corp., priority 2009, dated 2018)
